The values that follow come from PMC7075946 (Frontiers in Immunology, 2020).

The subject of one assay is human PBMCs. Briefly: Human PBMC secreted cytokines (Luminex). The format is cell-based. Conditions: for pro-inflammatory and Th1/Th17 biasing cytokines, concentrations and frequencies: secreted and intracellular cytokine data. On the procedure: Human blood was obtained from healthy adult donors through a University of Montana Institutional Review Board (IRB)-approved protocol. PBMCs were separated from whole blood via density gradient separation using Histopaque 1,077 (Sigma). For PBMC-based assays, cells were resuspended at the desired cell concentration in complete media (RPMI1640+10% FBS+antibiotics). Cells were treated with the indicated compound concentrations and stimulated for 6–24 h depending on the assay as indicated in the figure legends and assays outlined below.
For Luminex assays, supernatants were harvested from treated human PBMCs following 18–24 h of incubation. Supernatants were analyzed using Luminex multiplex panel for analytes IL-1β, IL-12p70, IL-23, IL-6, TNFα, IFNα, and IL-4 (R&D Systems) per the manufacturer's instructions. Multiplex analysis was performed using a Luminex 200 instrument (Luminex Corporation) and analyzed with StarStation2.3 software.
Figure 6 Lipidated imidazoquinolines elicit a Th1/Th17-inducing innate cytokine profile from human PBMCs. PBMCs from 6 healthy, adult blood donors were stimulated with indicated concentrations of TLR7/8 agonists with and without a TLR4 agonist. Secreted cytokines were measured after 24 h via Luminex assay. Supernanant concentrations of (A) IL-12p70, (B) IL-23, (C) IL-1β, and (D) IL-4 were determined. […] Note that for each cytokine measured, the y-axis scale used for the left and right plots is identical for ease of comparison.

In a further assay the target is T1, human TLR7 (Homo sapiens, UniProt Q9NYK1).
T1 sequence (Q9NYK1 27-1049): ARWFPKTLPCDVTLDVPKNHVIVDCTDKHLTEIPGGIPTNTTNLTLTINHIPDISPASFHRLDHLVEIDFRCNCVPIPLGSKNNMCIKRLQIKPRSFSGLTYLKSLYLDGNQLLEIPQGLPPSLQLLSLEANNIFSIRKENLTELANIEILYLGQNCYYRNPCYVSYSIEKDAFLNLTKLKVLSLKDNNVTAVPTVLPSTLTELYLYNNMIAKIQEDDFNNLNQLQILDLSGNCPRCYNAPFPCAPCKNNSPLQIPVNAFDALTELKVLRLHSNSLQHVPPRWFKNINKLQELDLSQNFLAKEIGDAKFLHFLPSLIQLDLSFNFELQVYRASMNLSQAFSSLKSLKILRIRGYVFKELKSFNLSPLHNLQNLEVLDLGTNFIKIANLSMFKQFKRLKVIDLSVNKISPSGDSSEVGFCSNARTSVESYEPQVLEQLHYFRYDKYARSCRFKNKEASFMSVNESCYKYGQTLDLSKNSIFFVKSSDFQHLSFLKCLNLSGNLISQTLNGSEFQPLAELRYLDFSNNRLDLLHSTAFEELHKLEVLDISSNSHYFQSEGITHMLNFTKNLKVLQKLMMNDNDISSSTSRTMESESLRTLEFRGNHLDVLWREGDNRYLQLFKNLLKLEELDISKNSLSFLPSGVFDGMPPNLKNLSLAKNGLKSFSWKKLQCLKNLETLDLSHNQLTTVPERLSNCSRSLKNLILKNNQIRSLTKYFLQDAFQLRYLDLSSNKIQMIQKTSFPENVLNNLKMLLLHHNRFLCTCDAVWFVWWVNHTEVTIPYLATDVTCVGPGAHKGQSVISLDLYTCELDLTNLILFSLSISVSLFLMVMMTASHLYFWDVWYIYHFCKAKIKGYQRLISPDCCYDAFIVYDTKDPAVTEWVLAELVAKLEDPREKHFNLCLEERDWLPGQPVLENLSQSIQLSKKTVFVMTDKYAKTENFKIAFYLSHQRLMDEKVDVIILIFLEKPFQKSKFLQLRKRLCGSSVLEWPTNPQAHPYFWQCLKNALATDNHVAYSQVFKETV
The assay is described as follows: cell-based.

For the next assay, the target named is T2, human TLR8 (Homo sapiens, UniProt Q9NR97).
T2 sequence (Q9NR97 27-1041): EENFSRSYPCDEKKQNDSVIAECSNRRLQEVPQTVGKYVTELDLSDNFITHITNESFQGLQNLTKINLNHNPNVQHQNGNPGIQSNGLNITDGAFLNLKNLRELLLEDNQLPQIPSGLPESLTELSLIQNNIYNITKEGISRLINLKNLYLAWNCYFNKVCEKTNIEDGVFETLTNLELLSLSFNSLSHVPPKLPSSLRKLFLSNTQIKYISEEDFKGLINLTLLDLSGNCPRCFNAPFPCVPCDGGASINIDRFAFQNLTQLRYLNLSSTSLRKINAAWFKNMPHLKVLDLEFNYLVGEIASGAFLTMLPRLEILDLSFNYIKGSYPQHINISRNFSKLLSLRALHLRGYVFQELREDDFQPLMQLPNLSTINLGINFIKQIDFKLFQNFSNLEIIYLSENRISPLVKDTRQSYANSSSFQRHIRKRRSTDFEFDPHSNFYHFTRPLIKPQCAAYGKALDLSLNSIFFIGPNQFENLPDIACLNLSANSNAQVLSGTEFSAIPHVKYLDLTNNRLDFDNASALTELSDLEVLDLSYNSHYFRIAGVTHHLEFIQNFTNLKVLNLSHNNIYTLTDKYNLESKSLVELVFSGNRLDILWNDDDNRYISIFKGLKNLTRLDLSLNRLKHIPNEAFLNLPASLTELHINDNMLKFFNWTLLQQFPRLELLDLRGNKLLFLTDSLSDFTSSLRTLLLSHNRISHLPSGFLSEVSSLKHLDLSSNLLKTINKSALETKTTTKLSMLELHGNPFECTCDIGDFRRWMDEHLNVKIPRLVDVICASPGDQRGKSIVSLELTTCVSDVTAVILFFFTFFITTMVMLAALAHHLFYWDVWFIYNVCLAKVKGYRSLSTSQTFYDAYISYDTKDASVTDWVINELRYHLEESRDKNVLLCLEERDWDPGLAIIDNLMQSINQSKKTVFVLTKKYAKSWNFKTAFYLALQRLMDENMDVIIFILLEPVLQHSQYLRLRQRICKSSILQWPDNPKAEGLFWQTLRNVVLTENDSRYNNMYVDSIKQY
Briefly: cell-based.

Assay [1] deals with A/Victoria/210/2009 (H3N2). The assay is described as follows: ELISA of influenza-specific serum antibody titers in mice given adjuvanted A/Vic vaccine.

The structures appear in SMILES notation. “Also recorded” adds a separate entry of the source.

Usually EC50 stands for the concentration needed to bring the measured effect to its halfway point. Read a high EC50 as a less potent agent. As to `CCCCc1nc2c(N)nc3ccccc3c2n1CCO` [UM-3001], in the assay on human PBMCs (24 h), the IFNα secretion result was “not”. Besides, the IL-12p70 production result in the assay on human PBMCs (with CRX-601 added at a 1:10 ratio, 24 h) is “boosted IL-12p70 production”. For the same compound, the EC50 is 1.12 µM on human TLR7 and 0.53 µM on human TLR8. Also, in assay [1] (14 days post-primary (14dp1)), the “average fold change of IgG2a vs IgG1 titers over A/Vic alone” value (from here on “average fold change of IgG2a”) was “approximately equal increase in both IgG2a and IgG1 titers”.
On to `CCCCCCCCCCCCCCCC(=O)OC[C@H](COCCOCCOCCOP(=O)(O)OCCn1c(CCCC)nc2c(N)nc3ccccc3c21)OC(=O)CCCCCCCCCCCCCCC` [UM-3003], for which, in the assay on human PBMCs (24 h), the IFNα secretion entry is listed as “secreted; also recorded: most potent inducer of IFNα”. Moreover, in the assay with human PBMCs (compound alone, 24 h), the IL-1β production entry is given as “low concentrations”, the IL-12p70 production result is “low levels” and the IL-23 production result is “low concentrations”. The “pro-inflammatory and Th1/Th17 biasing cytokines, concentrations and frequencies” value with human PBMCs was “low concentrations and low frequencies”. A half-maximal response on human TLR7 (EC50) required 34.7 µM. Moreover, the EC50 on human TLR8 came out at 52.5 µM. Besides, the “average fold change of IgG2a” value in assay [1] (mouse, in vivo) is on record as “IgG2a titers were increased more than IgG1 titers”.
Consider `CCCCCCCCCCCCCCCC(=O)OC[C@H](COCCOCCOCCOCCOCCOCCOP(=O)(O)OCCn1c(CCCC)nc2c(N)nc3ccccc3c21)OC(=O)CCCCCCCCCCCCCCC` [UM-3004], for which the IFNα secretion entry in the assay on human PBMCs (24 h) is reported as “secreted”. Moreover, the EC50 at human TLR7 turned out to be 60.5 µM; on human TLR8 it was 24.6 µM. Further, the “average fold change of IgG2a” value in assay [1] (14 days post-primary (14dp1)) was “IgG2a titers were increased more than IgG1 titers”.
For the compound `CCCCCCCC/C=C\CCCCCCCC(=O)OC[C@H](COP(=O)(O)OCCc1ccc2c(c1)nc(N)c1nc(CCCC)n(CCO)c12)OC(=O)CCCCCCC/C=C\CCCCCCCC` [UM-3005], the IFNα secretion result with human PBMCs (24 h) is on record as “secreted”. The “pro-inflammatory and Th1/Th17 biasing cytokines, concentrations and frequencies” value in the assay with human PBMCs is “highest concentrations and frequencies”. Moreover, the EC50 at human TLR7 was 499 µM; on human TLR8 it was 0.27 µM. Besides, in assay [1] (mouse, in vivo), the “average fold change of IgG2a” value is given as “IgG2a titers were increased more than IgG1 titers”.
